Test results: patent US20250145715A1, “B7-H3 TARGETING FUSION PROTEINS AND METHODS OF USE THEREOF” (GT Biopharma, Inc., priority 2021, published 2025)

Experiments:
Type in all cases: cell-based, human
[1] = system: PC-3 spheroids; experiment: PC-3 spheroid assay
Description: FIG. 18 is a graph illustrating the size of PC-3 spheroids over time.
FIG. 19 is a graph illustrating the size of PC-3 spheroids over time.

[2] = system: prostate cancer cells; experiment: Cell index over time, killing of prostate cancer cells
Description: FIG. 21 is a graph illustrating cell index over time.

[3] = system: DU145 prostate cancer cells; experiment: NK cell CD107a / IFNγ flow cytometry against DU145; details: normal donor and prostate cancer patient NK cells, vs controls
Description: FIG. 15A is a graph showing pooled analysis of proportion of NK cells from healthy donors or prostate cancer patients expressing CD107a+ (top) or IFNγ (bottom) against C4-2 targets (N=9 for healthy donors, N=3 for patients). FIG. 15B is a graph showing pooled analysis of proportion of NK cells from healthy donors or prostate cancer patients expressing CD107a+ (top) or IFNγ (bottom) against DU145 targets (N=9 for healthy donors, N=3 for patients). FIG. 15C is a graph showing pooled analysis of proportion of NK cells from healthy donors or prostate cancer patients expressing CD107a+ (top) or IFNγ (bottom) against LNCaP targets (N=9 for healthy donors, N=3 for patients). FIG. 15D is a graph showing pooled analysis of proportion of NK cells from healthy donors or prostate cancer patients expressing CD107a+ (top) or IFNγ (bottom) against PC3 targets (N=9 for healthy donors, N=3 for patients). * p<0.05, ** p<0.01, *** p<0.001, and **** p<0.0001.
ADCC was measured in a flow cytometry assay by evaluating degranulation via CD107a (lysosomal-associated membrane protein LAMP-1) and intracellular IFNγ production. Upon thawing, normal donor and patient-derived PBMCs or ascites cells were rested overnight (37° C., 5% CO2) in RPMI 1640 media supplemented with 10% fetal calf serum (RPMI-10). […] Samples were washed and evaluated in an LSRII flow cytometer (BD Biosciences, San Jose, CA, USA). […]

[4] = system: normal immune cells (PBMCs); experiment: Background NK cell activity in PBMCs without tumor targets
Experimental: ADCC was measured in a flow cytometry assay by evaluating degranulation via CD107a (lysosomal-associated membrane protein LAMP-1) and intracellular IFNγ production. Upon thawing, normal donor and patient-derived PBMCs or ascites cells were rested overnight (37° C., 5% CO2) in RPMI 1640 media supplemented with 10% fetal calf serum (RPMI-10). The next morning, they were suspended with tumor-target cells or media after washing twice with RPMI-10. Cells were then incubated with TriKEs or controls for 10 min at 37° C. Fluorescein isothiocyate (FITC)-conjugated anti-human CD107a monoclonal antibody (BD Biosciences, San Jose, CA, USA) was then added. […] Samples were washed and evaluated in an LSRII flow cytometer (BD Biosciences, San Jose, CA, USA).
The ability of cam1615B7-H3 TriKE to mediate NK cell activity against ovarian cancer cells was evaluated. […] In order to determine if the individual components of the TriKE could induce NK cell activity on their own, the individual cam16 VHH, IL-15, or anti-B7-H3 scFv components were incubated with PBMCs and OVCAR8 cells and activity was determined. […] NK cell activity, from normal donor PBMCs and ascites from the peritoneal cavity of ovarian cancer patients at the time of surgery, was assessed against MA-148 cells, another high-grade serous ovarian adenocarcinoma cell line (FIGS. 29A-29B and 30G-30H). […]

Substance | PC-3 spheroid size over time [1] | killing of PC3 spheroids ([1]; photographs, FIG. 20) | time to killing of prostate cancer cells after initiation of treatment [2] | NK cell IFNγ production against DU145 [3] | NK cell degranulation (CD107a) against DU145 [3] | background NK cell IFNγ [4] | background NK cell degranulation (CD107a) [4]
B7-H3 TriKE: camelid nanobodies targeting CD16 and B7-H3 joined by IL-15 and two linkers; sequence table equates the name with cam1615B7-H3 | reduce PC-3 spheroid size over time | efficient killing of PC3 spheroids | within a couple of hours | – | – | – | –
cam1615B7-H3: second-generation TriKE: humanized camelid anti-CD16 VHH, human wild-type IL-15, anti-B7-H3 mAb 376.96 scFv; SEQ ID NO:1 | – | – | – | enhanced | enhanced | No background noise | some background degranulation (CD107a) on NK cells in comparison to controls, but this activity was low
